# Test results published in patent US10870660B2, “Nitrogen-containing condensed ring compounds having dopamine D3 antagonistic effect” (Shionogi & Co., Ltd., priority 2016, dated 2020).
# Assays:
# [1] = molecular target: human recombinant dopamine D2 receptor (Homo sapiens (Human), UniProt P14416); assay: Test of binding inhibition for the human dopamine D2 receptor ([3H]-Metylspiperone SPA binding); details: [3H]-Metylspiperone 1.2 nM, Jump-In HEK cell membranes, read-out: hD2_Ki
# Procedure: Cell membranes: Jump-In HEK cell membranes expressing human recombinant dopamine D2 receptor (2 μg/well)
# Buffer solution: 50 mM Tris-HCl (35409-45, Nacalai Tesque) (pH 7.4) containing 120 mM NaCl (31320-05, Nacalai Tesque), 1 mM MgCl2.6H2O (20909-55, Nacalai Tesque), 5 mM KCl (28514-75, Nacalai Tesque) and 2 mM CaCl2 (067-31, Nacalai Chemical, Ltd)
# Radioligand: (final concentration) 1.2 nM [^3H]-Metylspiperone ([^3H—N-methyl-]-Metylspiperone, NET-856, 83.8 Ci/mmol, PerkinElmer)
# (§1) Non-specific ligand: (final concentration) 10 μM Butaclamol [(+)-Butaclamol Hydrochioride, D033, Sigma]
# (§2) SPA beads: SPA beads [WGA PVT SPA Scintillatiion Beads, RPNQ0001 (500 mg), RPNQ0060 (2 g), PerkinElmer] (0.2 mg/well)
# (§3) Incubation time and temperature: 120 min at 25° C.
# (§4) Butaclamol or the compounds of the present invention were weighed and DMSO was added to make a 10 mM solution. This solution was diluted to each concentration.
# [^3H]-Metylspiperone was weighed and the buffer solution was added to make a 3.6 nM solution.
# (§5) SPA beads were weighed and stirred in water to make a 50 mg/mL solution. Using this solution, a mixed solution with the cell membranes was prepared.
# 225 nL of the solutions of the non-specific ligand or the compounds of the present invention at each concentration (in case of vehicle, final concentration 0.3% DMSO) were added in each well of a 384-well white/clear bottom microplate (3706, Corning). Jump-In HEK Cell membranes (final reaction amount: 2 μg protein/well), SPA beads (final reaction amount: 0.2 mg/well) and the buffer were mixed and the mixed solution was left still for more than or equal to 1 h at 4° C. Then, 50 μL of the mixture was added to each well of the plate. In addition, 25 μL of 3.6 nM [^3H]-Metylspiperone (final concentration: 1.2 nM) was added to each well. The plate was sealed by putting TopSeal-A 96/384 well (6050185, PerkinElmer) on the top of the plate, mixed using stirring deaerator (Welltornado, FK-62, Sakaki) and incubated for 120 min at 25° C. After incubation, the radioactivity of [^3H]-Metylspiperone which was binded to D2 receptor was determined by liquid scintillation counter (1450 Microbeta, PerkinElmer) in each well. Non-specific binding was calculated based on the radioactivity of [^3H]-Metylspiperone in the presence of 10 μM non-labeled Butaclamol. The total binding was calculated using the radioactivity of [^3H]-Metylspiperone in the absence of the compounds of the present invention (Vehicle). The Ki values were calculated from dose-response curves.
# (§6) Binding activities of the compounds of the present invention were calculated from the following Binding Inhibition Rate (%): Inhibition Rate (%)=[1−(c−a)(b−a)]×100(%) • a: Average cpm of non-specific binding • b: Average cpm of total binding • c: Cpm in the presence of each test compound
# [2] = molecular target: human recombinant dopamine D3 receptor (Homo sapiens (Human), UniProt P35462); assay: Test of binding inhibition for the human dopamine D3 receptor ([3H]-Metylspiperone SPA binding); details: [3H]-Metylspiperone 2 nM, Jump-In HEK cell membranes, read-out: hD3_Ki
# Chain of human recombinant dopamine D3 receptor (P35462 whole entry): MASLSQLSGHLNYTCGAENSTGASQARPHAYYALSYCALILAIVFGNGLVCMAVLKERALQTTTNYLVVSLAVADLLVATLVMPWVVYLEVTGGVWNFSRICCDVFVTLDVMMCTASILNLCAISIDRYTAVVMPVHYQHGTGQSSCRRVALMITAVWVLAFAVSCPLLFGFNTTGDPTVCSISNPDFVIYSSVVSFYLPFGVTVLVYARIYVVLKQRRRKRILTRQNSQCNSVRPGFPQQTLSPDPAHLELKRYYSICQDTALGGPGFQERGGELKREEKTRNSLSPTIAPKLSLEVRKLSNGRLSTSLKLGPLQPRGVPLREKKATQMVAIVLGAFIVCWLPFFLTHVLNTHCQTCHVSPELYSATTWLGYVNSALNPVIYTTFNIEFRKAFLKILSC
# Procedure: Cell membranes: Jump-In HEK cell membranes expressing human recombinant dopamine D3 receptor (4 μg/well)
# as §1, §2, §3, §4
# [^3H]-Metylspiperone was weighed and the buffer solution was added to make a 6 nM solution.
# as §5
# Jump-In HEK Cell membranes (final reaction amount: 4 μg/well), SPA beads (final reaction amount: 0.2 mg/well) and Tris-HCl buffer were mixed and the mixed solution was left still for more than 60 min at 4° C. Then, 50 μL of the mixture was added to each well of the plate. In addition, 25 μL of 6 nM [^3H]-Metylspiperone (final concentration: 2 nM) was added to each well. […] Non-specific binding was calculated based on the radioactivity of [^3H]-Metylspiperone in the presence of 10 μM non-labeled Butaclamol. The total binding was calculated based on the radioactivity of [^3H]-Metylspiperone in the absence of the compounds of the present invention (Vehicle). The Ki values were calculated from dose-response curves.
# as §6
# Chain of human recombinant dopamine D2 receptor (P14416 whole entry): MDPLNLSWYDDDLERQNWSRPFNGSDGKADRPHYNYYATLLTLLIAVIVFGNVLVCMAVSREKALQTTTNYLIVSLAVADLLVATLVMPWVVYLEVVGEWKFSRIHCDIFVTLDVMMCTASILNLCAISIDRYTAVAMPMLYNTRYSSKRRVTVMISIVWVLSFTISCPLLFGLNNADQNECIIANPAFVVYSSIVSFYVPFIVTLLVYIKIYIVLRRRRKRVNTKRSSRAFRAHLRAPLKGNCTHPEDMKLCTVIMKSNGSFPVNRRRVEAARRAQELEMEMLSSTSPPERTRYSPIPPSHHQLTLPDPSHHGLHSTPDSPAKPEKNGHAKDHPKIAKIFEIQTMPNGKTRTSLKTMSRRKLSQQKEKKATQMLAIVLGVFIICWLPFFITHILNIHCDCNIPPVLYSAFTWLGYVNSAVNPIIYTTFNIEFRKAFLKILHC
Compound,Ki [1] [nM],Ki [2] [nM]
Cc1ncc(CC(=O)N[C@H]2CC[C@H](CCN3CCc4ccc(OCC(F)F)nc4CC3)CC2)s1 [II-005],430,0.085
Cn1c(C#N)cc2c1CCN(CC[C@H]1CC[C@H](NC(=O)c3cccc4ncccc34)CC1)C2 [Compound I-052],1100,1
O=C(N[C@H]1CC[C@H](CCN2CCc3sc(C4=CCOCC4)nc3C2)CC1)c1cccc2ncccc12 [Compound I-001],> 1700,11
Cn1cc2c(C(=O)N[C@H]3CC[C@H](CCN4CCc5cnc(CCC(F)(F)F)nc5CC4)CC3)cccc2n1 [II-072],> 1800,0.48
Cn1cc2c(C(=O)N[C@H]3CC[C@H](CCN4CCc5nc(OCC(F)(F)F)sc5CC4)CC3)cccc2n1 [II-046],1200,0.2
Cn1cc2c(C(=O)N[C@H]3CC[C@H](CCN4CCc5ccc(OCC(F)(F)F)nc5CC4)OC3)cccc2n1 [II-087],260,0.059
O=C(N[C@H]1CC[C@H](CCN2CCc3sc(OCC(F)(F)F)nc3C2)OC1)c1cccc2ncccc12 [Compound I-142],650,0.72
Cc1ncc(CC(=O)N[C@H]2CC[C@H](CCN3CCc4cn(CCC(F)(F)F)nc4CC3)CC2)s1 [II-088],> 1900,7.4
O=C(NCCCCN1CCc2sc(OCC(F)(F)F)nc2C1)c1ccc2ccccc2c1 [Compound I-140],1200,1.9
Cc1ncc(CC(=O)N[C@H]2CC[C@H](CCN3CCc4nc(OCC(F)(F)F)sc4CC3)CC2)o1 [II-085],740,0.096
Cc1ncc(CC(=O)N[C@H]2CC[C@H](CCN3CCc4ccc(N5CC(F)(F)C5)nc4CC3)CC2)s1 [II-066],> 1900,0.84
Cn1cc2c(C(=O)N[C@H]3CC[C@H](CCN4CCc5nc(OCC(F)F)sc5CC4)CC3)cccc2n1 [II-026],> 1700,0.2
Cn1c(-c2ccccc2)nc2c1CCN(CC[C@H]1CC[C@H](NC(=O)c3cccc4ncccc34)CC1)C2 [Compound I-070],500,1.4
Cc1ncc(CC(=O)N[C@H]2CC[C@](F)(CCN3CCc4nc(OCC(C)(F)F)sc4CC3)CC2)s1 [II-070],820,0.44
Cc1ncc(CC(=O)N[C@H]2CC[C@H](CCN3CCc4nc(OCC(F)(F)F)sc4CC3)CC2)s1 [II-053],730,–
Cc1ncc(CC(=O)N[C@H]2CC[C@H](CCN3CCc4nc(N(C)CC(F)(F)F)sc4CC3)CC2)s1 [II-084],510,–
Cc1cc(CC(=O)N[C@H]2CC[C@H](CCN3CCc4nc(OCC(F)F)sc4CC3)CC2)no1 [III-282],–,0.82

# Results, then the compound that gave them:
Ki [1] [nM],Ki [2] [nM],Compound
190,0.15,CCN1Cc2c(C(=O)N[C@H]3CC[C@H](CCN4CCc5sc(CCC(F)(F)F)nc5C4)CC3)cccc2C1=O [III-701]
> 1700,0.91,CC(CF)Oc1nc2c(s1)CCN(CC[C@H]1CC[C@H](NC(=O)c3cccc4nn(C)cc34)CC1)CC2 (stereo partly drawn) [III-159]
330,0.077,CN1Cc2c(C(=O)N[C@H]3CC[C@H](CCN4CCc5sc(OCC(F)(F)F)nc5C4)CC3)cccc2C1=O [III-610]
> 1900,1.6,Cn1cc2c(C(=O)N[C@H]3CC[C@H](C(O)CN4CCc5ccc(OCC(F)(F)F)nc5CC4)CC3)cccc2n1 (stereo partly drawn) [III-248]
1000,0.29,Cn1cc2c(C(=O)N[C@H]3CC[C@H](CCN4CCc5sc(CCC(F)(F)F)nc5C4)CC3)cccc2n1 [III-452]
370,0.12,Cn1c(C(=O)N[C@H]2CC[C@H](CCN3CCc4nc(OCC(F)(F)F)sc4CC3)CC2)cccc1=O [III-128]
490,0.7,Cc1ncc(CC(=O)N[C@H]2CC[C@H](CCN3CCc4ccc(OCC(F)(F)F)nc4CC3)OC2)o1 [III-231]
> 1800,1.2,Cn1cc(CC(=O)N[C@H]2CC[C@H](CCN3CCc4sc(COC(F)(F)F)nc4C3)CC2)cn1 [III-622]
770,0.52,Cc1cnc(CC(=O)N[C@H]2CC[C@H](CCN3CCc4sc(CCC(F)(F)F)nc4C3)CC2)o1 [III-698]
610,0.58,Cc1nnc(CC(=O)N[C@H]2CC[C@](F)(CCN3CCc4nc(OCC(F)(F)F)sc4CC3)CC2)o1 [III-253]
570,0.78,Cc1nnc(CC(=O)N[C@H]2CC[C@H](CCN3CCc4nc(OCC(F)F)sc4CC3)CC2)o1 [III-273]
–,0.2,COc1cc(CC(=O)N[C@H]2CC[C@H](CCN3CCc4nc(OCC(F)(F)F)sc4CC3)OC2)on1 [III-199]
44,0.057,Cn1cc(/C=C/C(=O)N[C@H]2CC[C@H](CCN3CCc4nc(OCC(F)(F)F)sc4CC3)CC2)cn1 [III-138]
210,0.2,Cn1cc2c(C(=O)N[C@H]3CC[C@H](CCN4CCc5sc(OCC(C)(F)F)nc5C4)CC3)ccc(F)c2n1 [III-666]
380,0.4,Cc1cc2c(C(=O)N[C@H]3CC[C@H](CCN4CCc5nc(OCC(F)(F)F)sc5CC4)OC3)cccn2n1 [III-169]
> 1700,0.25,Cn1cc2c(C(=O)N[C@H]3CC[C@H](CCN4CCc5ccc(OC6CC(F)(F)C6)nc5CC4)CC3)cccc2n1 [III-155]
850,0.44,Cn1cc(CC(=O)N[C@H]2CC[C@H](CCN3CCc4sc(OC5CCC(F)(F)C5)nc4C3)CC2)cn1 (stereo partly drawn) [III-484]
500,0.29,Cn1cc2c(C(=O)N[C@H]3CC[C@H](CCN4CCc5sc(N6CC(F)(F)C6)nc5C4)CC3)cccc2n1 [III-439]
290,0.36,Cc1nnc(CC(=O)N[C@H]2CC[C@](F)(CCN3CCc4nc(OCC(F)(F)F)sc4CC3)CC2)s1 [III-269]
220,0.23,CN1Cc2c(C(=O)N[C@H]3CC[C@H](CCN4CCc5sc(CCC(F)(F)F)nc5C4)CC3)cccc2C1=O [III-697]
> 1900,0.24,Cn1cc2c(C(=O)N[C@H]3CC[C@H](CCN4CCc5nc(OC6CC(F)(F)C6)sc5CC4)CC3)cccc2n1 [III-244]
800,0.2,Cc1ncc(CC(=O)N[C@H]2CC[C@H](CCN3CCc4sc(CCC(F)(F)F)nc4C3)CC2)o1 [III-696]
610,0.44,Cc1ncccc1C(=O)N[C@H]1CC[C@H](CCN2CCc3sc(OCC(F)(F)F)nc3C2)CC1 [III-603]
640,0.99,Cn1cc(CC(=O)N[C@H]2CC[C@H](CCN3CCc4ccc(OCC(F)(F)F)nc4CC3)OC2)cn1 [III-230]
> 1700,–,COc1cc(CC(=O)N[C@H]2CC[C@H](CCN3CCc4sc(N5CC(F)(F)C5)nc4C3)CC2)on1 [III-578]
810,–,Cc1cc(OCC(=O)N[C@H]2CC[C@H](CCN3CCc4sc(N5CC(F)(F)C5)nc4C3)CC2)no1 [III-581]
–,0.56,Cc1ncccc1C(=O)N[C@H]1CC[C@H](CCN2CCc3nc(OCC(F)(F)F)sc3CC2)OC1 [III-182]
–,0.2,Cn1cc(CC(=O)N[C@H]2CC[C@H](CCN3CCc4nc(OCC(F)(F)F)sc4CC3)CC2)cn1 [III-037]
–,0.14,Cc1nc(CC(=O)N[C@H]2CC[C@H](CCN3CCc4ccc(OCC(C)(F)F)nc4CC3)CC2)no1 [III-019]
330,–,Cn1cc2c(C(=O)N[C@H]3CC[C@H](CCN4CCc5ccc(OCC(C)(F)F)nc5CC4)CC3)cccc2n1 [III-027]
